Laboratory results published in US9920063B2, “Melampomagnolide B derivatives” (Board of Trustees of the University of Arkansas, priority 2013, dated 2018).
Where two headings read alike, the source gives them in different places.

Legend:
[1] = tested on: NCI-H23
[2] = tested on: SK-MEL-28
[3] = tested on: SK-MEL-5
[4] = tested on: OVCAR-3
[5] = tested on: OVCAR-8

C=C1C(=O)O[C@H]2[C@H]1CC/C(COC(=O)c1cc3ccccc3[nH]1)=C\CC[C@@]1(C)O[C@@H]21 [BS-1-28]
CC50 [1]: 7720 nM
Percent Growth ([1]; NCI-H23, Log10 Concentration −4.0): −84%
Percent Growth ([1]; NCI-H23, Log10 Concentration −5.0): −67%
Percent Growth ([1]; NCI-H23, Log10 Concentration −6.0): 85%
Percent Growth ([1]; NCI-H23, Log10 Concentration −7.0): 96%
Percent Growth ([1]; NCI-H23, Log10 Concentration −8.0): 96%
GI50 ([1]; NCI-H23, NCI five dose): 1690 nM
TGI ([1]; NCI-H23, NCI five dose): 3.62E−6
CC50 [2]: 5740 nM
Percent Growth ([2]; SK-MEL-28, Log10 Concentration −4.0): −93%
Percent Growth ([2]; SK-MEL-28, Log10 Concentration −5.0): 47%
Percent Growth ([2]; SK-MEL-28, Log10 Concentration −6.0): 67%
Percent Growth ([2]; SK-MEL-28, Log10 Concentration −7.0): 101%
Percent Growth ([2]; SK-MEL-28, Log10 Concentration −8.0): 90%
GI50 ([2]; SK-MEL-28, NCI five dose): 1280 nM
TGI ([2]; SK-MEL-28, NCI five dose): 2.72E−6
CC50 [3]: 5120 nM
Percent Growth ([3]; SK-MEL-5, Log10 Concentration −4.0): −95%
Percent Growth ([3]; SK-MEL-5, Log10 Concentration −5.0): −98%
Percent Growth ([3]; SK-MEL-5, Log10 Concentration −6.0): 67%
Percent Growth ([3]; SK-MEL-5, Log10 Concentration −7.0): 92%
Percent Growth ([3]; SK-MEL-5, Log10 Concentration −8.0): 96%
GI50 ([3]; SK-MEL-5, NCI five dose): 1260 nM
TGI ([3]; SK-MEL-5, NCI five dose): 2.54E−6
CC50 [4]: 2660 nM
Percent Growth ([4]; OVCAR-3, Log10 Concentration −4.0): −95%
Percent Growth ([4]; OVCAR-3, Log10 Concentration −5.0): −92%
Percent Growth ([4]; OVCAR-3, Log10 Concentration −6.0): −15%
Percent Growth ([4]; OVCAR-3, Log10 Concentration −7.0): 50%
Percent Growth ([4]; OVCAR-3, Log10 Concentration −8.0): 19%
TGI ([4]; OVCAR-3, NCI five dose): 5.92E−7
CC50 [5]: 64600 nM
Percent Growth ([5]; OVCAR-8, Log10 Concentration −4.0): −63%
Percent Growth ([5]; OVCAR-8, Log10 Concentration −5.0): 5%
Percent Growth ([5]; OVCAR-8, Log10 Concentration −6.0): 69%
Percent Growth ([5]; OVCAR-8, Log10 Concentration −7.0): 63%
Percent Growth ([5]; OVCAR-8, Log10 Concentration −8.0): 58%
GI50 ([5]; OVCAR-8, NCI five dose): 1990 nM
TGI ([5]; OVCAR-8, NCI five dose): 1.19E−4
